{"source": "patent US20090215684A1", "about": "“Use of BPI Protein for Treatment of Diseases” (BRIDGE BIORESEARCH LIMITED, priority 2005, published 2009)", "molecules": {"B1": {"name": "BPI: human purified bactericidal/permeability-increasing (BPI) protein, 456 residues, approximately 55 kD (protein, listed as Homo sapiens)", "chain": "VNPGVVVRISQKGLDYASQQGTAALQKELKRIKIPDYSDSFKIKHLGKGHYSFYSMDIREFQLPSSQISMVPNVGLKFSISNANIKISGKWKAQKRFLKMSGNFDLSIEGMSISADLKLGSNPTSGKPTITASSCSSHINSVHVHISKSKVGWLIQLFHKKIESALRNKMNSQVCEKVTNSVSSKLQPYFQTL"}}, "key": {"[1]": {"test_system": "subjects with glucose intolerance", "experiment": "CIGMA (continuous infusion of glucose with model assessment) in the metformin study", "assay_type": "in vivo, human", "details": "mean ± SD; for Achieved C-peptide / Achieved glucose / Achieved insulin: after intravenous glucose", "experimental": "(§1) The clinical study was performed in accordance with the Declaration of Helsinki (revised version of Hong Kong 1989) as well as with the EC Note for guidance “Good clinical practice for studies on medicinal products in the European Community”. It was approved by the local Ethics Committee and the Spanish Health Department (Clinical assay number: 97/337). Thirty-one patients were randomized either to placebo or metformin according to the randomization tablets supply generated by LIPHA using the computer program RANCODE +3.1. A dietician with the aim of assuring a stable weight gave general diabetic dietary advice at the beginning of the study. Two months after the first visit (visit 2) subjects started taking metformin or placebo, one tablet per day (850 mg) for the first week and then two tablets per day (one after breakfast and one after dinner) for the following eleven weeks. Drug compliance was checked by tablet counts and any side effect was recorded at visit 3 (6 weeks after randomization) and at visit 4 (at the end of the study).\n(§2) To assess glucose tolerance, an OGTT was performed after an overnight fast. Insulin sensitivity was evaluated by HOMA (Homeostasis model assessment) using basal (mean of three samples obtained at 5 minutes interval) glucose and insulin (Bonora E, et al., Diabetes Care, 2000, vol. 23, pp. 57-63). Beta cell function was calculated by CIGMA (Continuous infusion of glucose with model assessment) from achieved C-peptide and glucose values (Hosker J P, et al., Diabetologia 1985, vol. 28, pp. 401-11). CIGMA test consists of a continuous intravenous infusion of 5-mg glucose per kg of ideal body weight.min^−1 using a 10 g.dl^−1 glucose solution with model assessment of glucose, insulin and C-peptide (RIA, Byk-Sangtec Diagnostica, Dietzenbach, Germany) values obtained before (basal value, mean value of three samples obtained at 5 minute intervals) and at the end (achieved value, mean value of samples obtained at 50, 55 and 60 minutes) of the test. C-peptide detection level was 0.1 ng/ml and had intra- and inter-assay coefficients of variation of 2.6% and 4.4%."}, "[2]": {"test_system": "subjects with glucose intolerance", "experiment": "Randomized clinical study of metformin vs placebo in glucose-intolerant patients: anthropometric and fasting variables", "assay_type": "in vivo, human", "details": "mean ± SD; for BMI: 9 patients", "from_the_text": "The objective of this study was to evaluate the effects of changing insulin action—after treatment with an insulin sensitizer (metformin)—on circulating BPI in subjects with glucose intolerance.\nPatients were recruited from the Diabetes and Endocrinology Unit at Hospital de Girona Dr Josep Trueta. They were offered participation in the study if they were between 30 and 65 years old and fulfilled all the inclusion criteria. Men and women were both included, but women only when surgical sterility was documented or when they were post-menopausal or when a reliable method of contraception was used. The inclusion criteria were as follows: a) body mass index (BMI) between 22 and 35 kg/m^2, b) impaired glucose tolerance by an OGTT performed two months before the beginning of the study or a fasting glucose level between 110 and 140 mg/dl, c) stability of diet and physical exercise within the past two months. All subjects signed a written informed consent.\nas §1\nOut of 118 pre-selected subjects, 31 patients were randomized for the study (16 to metformin and 15 to placebo). Six patients ([…] and 3 on placebo) discontinued early and two non-compliant patients were excluded (both in metformin group). 21 patients (9 on metformin and 12 on placebo) were finally analyzed."}, "[3]": {"test_system": "subjects with glucose intolerance", "experiment": "Oral glucose tolerance test (OGTT) in the metformin study", "assay_type": "in vivo, human", "details": "mean ± SD", "experimental": "The clinical study was performed in accordance with the Declaration of Helsinki (revised version of Hong Kong 1989) as well as with the EC Note for guidance “Good clinical practice for studies on medicinal products in the European Community”. It was approved by the local Ethics Committee and the Spanish Health Department (Clinical assay number: 97/337). Thirty-one patients were randomized either to placebo or metformin according to the randomization tablets supply generated by LIPHA using the computer program RANCODE +3.1. A dietician with the aim of assuring a stable weight gave general diabetic dietary advice at the beginning of the study. […] Drug compliance was checked by tablet counts and any side effect was recorded at visit 3 (6 weeks after randomization) and at visit 4 (at the end of the study).\nTo assess glucose tolerance, an OGTT was performed after an overnight fast. Insulin sensitivity was evaluated by HOMA (Homeostasis model assessment) using basal (mean of three samples obtained at 5 minutes interval) glucose and insulin (Bonora E, et al., Diabetes Care, 2000, vol. 23, pp. 57-63). Beta cell function was calculated by CIGMA (Continuous infusion of glucose with model assessment) from achieved C-peptide and glucose values (Hosker J P, et al., Diabetologia 1985, vol. 28, pp. 401-11). […]"}, "BPI": {"test_system": "BPI", "experiment": "Circulating plasma BPI (BPI ELISA) in the metformin study", "assay_type": "in vivo, human", "experimental": "BPI ELISA: Plasma EDTA BPI concentrations were measured by a sandwich enzyme-linked immunosorbent assay (Human BPI ELISA kit, HyCult biotechnology b.v.; P B Uden, The Netherlands) according to the manufacturer's instructions. The kit has an assay sensitivity of 250 pg/ml. […] The clinical study was performed in accordance with the Declaration of Helsinki (revised version of Hong Kong 1989) as well as with the EC Note for guidance “Good clinical practice for studies on medicinal products in the European Community”. It was approved by the local Ethics Committee and the Spanish Health Department (Clinical assay number: 97/337). Thirty-one patients were randomized either to placebo or metformin according to the randomization tablets supply generated by LIPHA using the computer program RANCODE +3.1. A dietician with the aim of assuring a stable weight gave general diabetic dietary advice at the beginning of the study. Two months after the first visit (visit 2) subjects started taking metformin or placebo, one tablet per day (850 mg) for the first week and then two tablets per day (one after breakfast and one after dinner) for the following eleven weeks. Drug compliance was checked by tablet counts and any side effect was recorded at visit 3 (6 weeks after randomization) and at visit 4 (at the end of the study)."}, "[4]": {"test_system": "subjects with glucose intolerance", "experiment": "Insulin sensitivity by HOMA (Homeostasis model assessment) in the metformin study", "assay_type": "in vivo, human", "details": "mean ± SD", "experimental": "as §1\nas §2, with “C-peptide detection level was 0.1 ng/ml and had intra- and inter-assay coefficients of variation of 2.6% and 4.4%.” left out"}, "ob/ob mice": {"test_system": "ob/ob mice", "experiment": "Effects of administration of BPI on blood glucose concentration in ob/ob mice", "assay_type": "in vivo", "experimental": "The objective of this study was to evaluate the effects of administration of BPI on glucose concentration on ob/ob mice\nObese mice ob/ob were treated for 6 days with a daily intraperitoneal dose of 2.5 ng of human purified BPI per gram of body weight or vehicle (control mice). Before the treatment both groups (control and BPI treated) presented a high glycemia and no differences were identified between both groups (342±33 and 342±38 mg/dl, respectively)."}, "[5]": {"details": "metformin, 12 weeks, p<0.05 within group"}, "[6]": {"details": "metformin, 12 weeks, p<0.05 within group, listed as metformin"}}, "note": "Where “and” joins values, the source holds several entries; their conditions need not be identical. Equal entries are not always repeated. Marks after values point to notes of the source that are not given here.", "data": [{"molecule": "CN(C)C(=N)N=C(N)N", "note": "[Metformin, metformin]", "values": [{"measurement": "Achieved C-peptide", "setting": "[1]; metformin group, baseline", "value": "5.2 ± 1.2", "unit": "ng/mL"}, {"measurement": "Achieved glucose", "setting": "[1]; metformin group, baseline", "value": "190.5 ± 18.9", "unit": "mg/dL"}, {"measurement": "Achieved insulin", "setting": "[1]; metformin group, baseline", "value": "28.5 ± 13.5", "unit": "mU/l"}, {"measurement": "Achieved glucose", "setting": "[1]; metformin, 12 weeks", "value": "174.6 ± 34.5", "unit": "mg/dL"}, {"measurement": "Achieved insulin", "setting": "[1]; metformin, 12 weeks", "value": "23.3 ± 7.6", "unit": "mU/l"}, {"measurement": "Achieved C-peptide", "setting": "[1]; [5]", "value": "4.2 ± 1.0^b ng/ml"}, {"measurement": "Achieved C-peptide", "setting": "[1]; [6]", "value": "statistically lower"}, {"measurement": "CIGMA beta cell function", "setting": "[1]; metformin group, baseline", "value": "82.8 ± 24.0", "unit": "%"}, {"measurement": "CIGMA beta cell function", "setting": "[1]; metformin, 12 weeks", "value": "90.9 ± 34.0", "unit": "%"}, {"measurement": "CIGMA beta cell function", "setting": "[1]; metformin, 12 weeks, listed as metformin", "value": "not modified"}, {"measurement": "BMI", "setting": "[2]; metformin 850 mg tablets, two per day, 12 weeks", "value": "27.7 ± 4.3", "unit": "Kg/m^2"}, {"measurement": "BMI", "setting": "[2]; metformin group, baseline (before treatment)", "value": "28.0 ± 4.5", "unit": "Kg/m^2"}, {"measurement": "Fasting C-peptide", "setting": "[2]; metformin group, baseline", "value": "2.5 ± 0.7", "unit": "ng/mL"}, {"measurement": "Fasting glucose", "setting": "[2]; metformin group, baseline", "value": "110.1 ± 9.9", "unit": "mg/dL"}, {"measurement": "Fasting insulin", "setting": "[2]; metformin group, baseline", "value": "11.6 ± 5.4", "unit": "mU/l"}, {"measurement": "Waist circumference", "setting": "[2]; metformin group, baseline", "value": "95.9 ± 11.5"}, {"measurement": "Waist-to-hip ratio", "setting": "[2]; metformin group, baseline", "value": "0.96 ± 0.1"}, {"measurement": "Waist circumference", "setting": "[2]; metformin, 12 weeks", "value": "94.8 ± 9.4"}, {"measurement": "Waist-to-hip ratio", "setting": "[2]; metformin, 12 weeks", "value": "0.92 ± 0.07"}, {"measurement": "Fasting glucose", "setting": "[2]; metformin, 12 weeks, p<0.01 within group", "value": "98.9 ± 15.7^a mg/dl"}, {"measurement": "Fasting glucose", "setting": "[2]; metformin, 12 weeks, p<0.01 within group, listed as metformin", "value": "decreased"}, {"measurement": "Fasting C-peptide", "setting": "[2]; [5]", "value": "1.8 ± 0.5^b ng/ml"}, {"measurement": "Fasting insulin", "setting": "[2]; [5]", "value": "8.8 ± 3.5^b mU/l"}, {"measurement": "Fasting C-peptide", "setting": "[2]; [6]", "value": "statistically lower"}, {"measurement": "Fasting insulin", "setting": "[2]; [6]", "value": "statistically lower"}, {"measurement": "120′ OGTT glucose", "setting": "[3]; metformin group, baseline", "value": "162.2 ± 27.8", "unit": "mg/dL"}, {"measurement": "120′ OGTT glucose", "setting": "[3]; metformin, 12 weeks", "value": "140.6 ± 42.9", "unit": "mg/dL"}, {"measurement": "BPI (circulating, plasma)", "setting": "BPI; metformin group, baseline, median (interquartile range 1.26-7.73)", "value": 2.75, "unit": "ng/mL"}, {"measurement": "BPI (circulating, plasma)", "setting": "BPI; metformin, 12 weeks, median (interquartile range 2.56-38.8), p = 0.017 within group", "value": 7.49, "unit": "ng/mL"}, {"measurement": "BPI (circulating, plasma)", "setting": "BPI; metformin, 12 weeks, median (interquartile range 2.56-38.8), p = 0.017 within group, listed as metformin", "value": "significantly increased"}, {"measurement": "HOMA sensitivity", "setting": "[4]; metformin group, baseline", "value": "37.4 ± 15.2", "unit": "%"}, {"measurement": "HOMA sensitivity", "setting": "[4]; [5]", "value": "50.4 ± 23.2^b %"}, {"measurement": "HOMA sensitivity", "setting": "[4]; [6]", "value": "improved"}]}, {"molecule": "B1", "values": [{"measurement": "GLU (blood glucose concentration), Mean", "setting": "ob/ob mice; BPI treated group, day 0 (before the treatment)", "value": "342 ± 38 mg/dL and 341.67 mg/dL"}, {"measurement": "GLU (blood glucose concentration), Mean", "setting": "ob/ob mice; daily intraperitoneal 2.5 ng human purified BPI per gram body weight, 3 days of treatment", "value": 289.00, "unit": "mg/dL"}, {"measurement": "GLU (blood glucose concentration), Mean", "setting": "ob/ob mice; daily intraperitoneal 2.5 ng human purified BPI per gram body weight, 6 days of treatment", "value": "261 ± 21 mg/dL and 261.80 mg/dL"}, {"measurement": "Effect on glycemia", "setting": "ob/ob mice; treatment for 3 or 6 days with 2.5 ng/g BPI i.p. daily, vs control", "value": "pronounced decrease of glycemia"}]}]}
